This is an account of results in patent US10752601B2, “Crystal form and salt of 3-(3,5-dichloro-4-hydroxybenzoyl)-1,1-dioxo-2,3-dihydro-1,3-benzothiazole” (FUJI YAKUHIN CO., LTD., priority 2017, dated 2020).

SMILES strings stand for the structures. Where two headings read alike, the source gives them in different places.

One may read the Cmax as the maximum level reached in the sampled fluid or tissue. What is called Tmax is the time from dosing to the highest level.

Data set [1] can be described thus: Test Example 2 (absorption properties at time of oral administration to rat). The note with it: single oral, mean ± SD (n = 4); for concentration at 1 hr: read-out: Unchanged compound level in blood plasma 1 hr; for concentration at 2 hr: read-out: Unchanged compound level in blood plasma 2 hr; for concentration at 4 hr: read-out: Unchanged compound level in blood plasma 4 hr; for concentration at 8 hr: read-out: Unchanged compound level in blood plasma 8 hr; for concentration at 24 hr: read-out: Unchanged compound level in blood plasma 24 hr; for AUC(0-t): read-out: AUC0-24 hr. It counts as in vivo. The method, then:
A test substance suspended in a 0.5% solution of methylcellulose was orally administered to a male CD (SD) rat (CHARLES RIVER LABORATORIES JAPAN, INC., 7 weeks old when used) in a dose of 30 and 300 mg/kg, and blood was then collected after 0.25, 0.5, 1, 2, 4, 8, and 24 hours. The level of unchanged compound in blood plasma was measured by HPLC (Table 2, Table 3), and pharmacokinetic parameters were calculated and absorption was evaluated (Table 4).

Data set [2] can be described thus: Test Example 1 (flowability and floodability), Carr index table. The format is physicochemical. The procedure: Test Example 1 (flowability and floodability): the compressibility was calculated by measuring bulk density and tap density of the crystals in Examples 1 and 2, and moreover, their dynamic bulk density, angle of repose, angle of spatula, uniformity, cohesion, angle of fall, angle of difference, and degree of dispersion were found, and flowability and floodability were evaluated using the Carr index table. (Table 1).

[3] abbreviates: male, CD (SD), plasma, po, 30 mg/kg, 30 mg/kg.
The mark [4] stands for this setting: male, CD (SD), plasma, po, 300 mg/kg, 300 mg/kg.

On to `O=C(c1cc(Cl)c(O)c(Cl)c1)N1CS(=O)(=O)c2ccccc21` [Example 1, 3-(3,5-dichloro-4-hydroxybenzoyl)-1,1-dioxo-2,3-dihydro-1,3-benzothiazole], for which, in data set [1] (setting [3]), the concentration at 1 hr was 49.8 ± 22.7 µg/mL, the concentration at 2 hr is 33 ± 11 µg/mL, the concentration at 4 hr was 26.6 ± 13 µg/mL and the concentration at 8 hr stood at 20.4 ± 5.53 µg/mL. Further, in data set [1] (setting [3]), the concentration at 24 hr stood at 1.16 ± 0.45 µg/mL and the AUC(0-t) was 412 ± 123 µg·h/mL. Besides, in data set [1] (male, CD (SD), plasma, po, 30 mg/kg, 30 mg/kg, read-out: Cmax), the Cmax came out at 59.2 ± 29.5 µg/mL. Also, in data set [1] (30 mg/kg), the “Unchanged compound level in blood plasma 0.25 hr” value worked out at 38.18 ± 23.24 µg/mL, the “Unchanged compound level in blood plasma 0.5 hr” value was determined as 58.51 ± 30.81 µg/mL and the Tmax is 0.63 ± 0.25 h. Besides, in data set [1] (300 mg/kg), the “Unchanged compound level in blood plasma 0.25 hr” value turned out to be 174.78 ± 19.03 µg/mL, the “Unchanged compound level in blood plasma 0.5 hr” value turned out to be 275.88 ± 42.51 µg/mL, the “Unchanged compound level in blood plasma 1 hr” value turned out to be 275.53 ± 30.24 µg/mL and the “Unchanged compound level in blood plasma 2 hr” value turned out to be 298.88 ± 35.19 µg/mL. Further, in data set [1] (300 mg/kg), the “Unchanged compound level in blood plasma 4 hr” value stood at 285.55 ± 26.38 µg/mL, the “Unchanged compound level in blood plasma 8 hr” value stood at 267.85 ± 25.73 µg/mL, the “Unchanged compound level in blood plasma 24 hr” value was found to be 73.31 ± 27.54 µg/mL and the AUC0-24 hr amounted to 4923.74 ± 547.44 µg·h/mL. Besides, in data set [1] (300 mg/kg), the Cmax came to 307.28 ± 26.20 µg/mL and the Tmax came out at 4.00 ± 2.83 h. For the same compound, in data set [2] (after pulverization), the Floodability index is listed as 43 and the Flowability index is on record as 36.
For the compound `O=C(c1cc(Cl)c(O)c(Cl)c1)N1CS(=O)(=O)c2ccccc21` [Example 2, 3-(3,5-dichloro-4-hydroxybenzoyl)-1,1-dioxo-2,3-dihydro-1,3-benzothiazole], in data set [1] (setting [4]), the concentration at 1 hr stood at 140 ± 20.3 µg/mL, the concentration at 2 hr worked out at 264 ± 42.2 µg/mL, the concentration at 4 hr came out at 314 ± 11.2 µg/mL and the concentration at 8 hr came to 267 ± 38.4 µg/mL. In data set [1] (setting [4]), the concentration at 24 hr came out at 47.2 ± 19.9 µg/mL and the AUC(0-t) amounted to 4530 ± 269 µg·h/mL. In data set [1] (male, CD (SD), plasma, po, 300 mg/kg, 300 mg/kg, read-out: Cmax), the Cmax was 316 ± 11.4 µg/mL. For the same compound, the Tmax in data set [1] (male, CD (SD), plasma, po, 300 mg/kg, 300 mg/kg, read-out: Tmax) was found to be 3.5 ± 1 h. In addition, in data set [1] (30 mg/kg), the “Unchanged compound level in blood plasma 0.25 hr” value stood at 12.45 ± 3.94 µg/mL, the “Unchanged compound level in blood plasma 0.5 hr” value is 27.41 ± 4.71 µg/mL, the “Unchanged compound level in blood plasma 1 hr” value was found to be 37.38 ± 2.85 µg/mL and the “Unchanged compound level in blood plasma 2 hr” value was 38.54 ± 0.91 µg/mL. In addition, in data set [1] (30 mg/kg), the “Unchanged compound level in blood plasma 4 hr” value was 23.23 ± 3.08 µg/mL, the “Unchanged compound level in blood plasma 8 hr” value is 19.23 ± 2.51 µg/mL, the “Unchanged compound level in blood plasma 24 hr” value amounted to 1.35 ± 0.73 µg/mL and the AUC0-24 hr was determined as 371.97 ± 34.08 µg·h/mL. For the same compound, in data set [1] (30 mg/kg), the Cmax was 39.03 ± 0.43 µg/mL and the Tmax was found to be 1.50 ± 0.58 h. For the same compound, in data set [1] (300 mg/kg), the “Unchanged compound level in blood plasma 0.25 hr” value worked out at 39.18 ± 4.61 µg/mL and the “Unchanged compound level in blood plasma 0.5 hr” value was 79.93 ± 13.24 µg/mL. In data set [2] (after pulverization), this compound came in with a Floodability index of 49.5 and a Flowability index of 42. Further, in data set [2] (before pulverization), the Floodability index is 57.5 and the Flowability index is given as 65.
